Read-outs that look alike come from different tables or passages of the source.
Tests used:
[1] = system: Shionogi mouse mammary carcinoma cells; assay: cells; format: cell-based; conditions: for % of inh of DHT at 10^−7 M (Basal = 100%): 0.0003 µM; for Ki: read-out: Shionogi cells Antiandrogenic activity Ki
Human Androgen Receptor = molecular target: T1, Human Androgen Receptor (Homo sapiens, UniProt P10275); format: binding
T1 construct: expressed in transfected cells; host or cells: HEK-293 cells stably transfected with the pCMVneo-hAR plasmid (G-418 selection); cytosol used
T1 sequence (P10275 1-920): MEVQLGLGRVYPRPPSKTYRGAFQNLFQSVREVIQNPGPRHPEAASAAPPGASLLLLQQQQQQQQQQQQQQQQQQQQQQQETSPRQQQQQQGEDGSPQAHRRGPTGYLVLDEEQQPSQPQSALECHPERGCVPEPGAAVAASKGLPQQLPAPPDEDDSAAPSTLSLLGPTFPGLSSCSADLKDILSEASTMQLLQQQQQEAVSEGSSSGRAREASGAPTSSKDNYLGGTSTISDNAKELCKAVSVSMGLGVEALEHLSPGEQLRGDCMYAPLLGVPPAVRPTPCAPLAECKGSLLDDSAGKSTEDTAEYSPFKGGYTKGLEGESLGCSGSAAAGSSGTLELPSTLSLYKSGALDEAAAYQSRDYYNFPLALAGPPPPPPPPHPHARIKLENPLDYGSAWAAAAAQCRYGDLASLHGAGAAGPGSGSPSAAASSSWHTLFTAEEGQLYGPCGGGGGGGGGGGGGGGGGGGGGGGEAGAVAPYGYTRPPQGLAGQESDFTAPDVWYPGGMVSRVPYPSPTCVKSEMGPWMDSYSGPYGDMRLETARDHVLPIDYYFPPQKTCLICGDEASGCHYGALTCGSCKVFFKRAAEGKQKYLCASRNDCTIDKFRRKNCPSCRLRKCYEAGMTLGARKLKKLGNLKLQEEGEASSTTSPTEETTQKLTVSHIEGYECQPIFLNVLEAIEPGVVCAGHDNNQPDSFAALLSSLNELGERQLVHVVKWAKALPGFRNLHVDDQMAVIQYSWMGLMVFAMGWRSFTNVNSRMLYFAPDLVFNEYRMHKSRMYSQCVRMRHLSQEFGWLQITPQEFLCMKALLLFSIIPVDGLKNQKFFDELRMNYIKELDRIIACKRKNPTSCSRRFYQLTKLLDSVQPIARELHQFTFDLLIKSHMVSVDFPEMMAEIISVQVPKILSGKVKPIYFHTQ

Immature Rat CX = conditions: for In Vivo Agonist % Change vs CX (DHT = +100%) SV / In Vivo Agonist % Change vs CX (DHT = +100%) VP: po
Immature Rat CX + DHT = assay: animal or person; format: in vivo; conditions: po; for change in vivo at 0.1 mg: Rattus norvegicus, 168 h
Intact Rat = assay: In vivo activity in intact rat (organ and muscle weight); conditions: rat, in vivo
[2] = read-out: In Vivo Antagonist % Change vs DHT (CX = −100%) SV
[3] = read-out: In Vivo Antagonist % Change vs DHT (CX = −100%) VP

## CCC1CC2(C)C(CCC2(O)Cc2cc[n+]([O-])cc2F)C2CCc3c(ccc(C#N)c3F)C12 (stereo not shown) [EM-9017]
[1]
  % of stim of basal at 10^−7M (% over basal): +36%
  % of stim of basal at 10^−7 M (DHT = 100%): +31%
  % of inh of DHT at 10^−7 M (Basal = 100%): +64%
Human Androgen Receptor
  Human Androgen Receptor Binding RBA (%) R1881 = 100%: 139%
Immature Rat CX
  In Vivo Agonist Rat CX % change vs CX (DHT CONT = +100%) Bulbo: +102 ± 12%
  In Vivo Agonist Rat CX % change vs CX (DHT CONT = +100%) SV: +22 ± 2%
  In Vivo Agonist Rat CX % change vs CX (DHT CONT = +100%) VP: +24 ± 5%
Immature Rat CX + DHT; rat, in vivo
  In Vivo Anti-A Rat CX + DHT % change vs DHT (CX CONT = −100%) Bulbo: +3 ± 11%
  In Vivo Anti-A Rat CX + DHT % change vs DHT (CX CONT = −100%) SV: −54 ± 2%
  In Vivo Anti-A Rat CX + DHT % change vs DHT (CX CONT = −100%) VP: −42 ± 2%
Intact Rat
  In Vivo Intact Rat % change vs Intact CONT (Intact CONT = +100%; CX CONT = 0%) Bulbo: +154 ± 13%
  In Vivo Intact Rat % change vs Intact CONT (Intact CONT = +100%; CX CONT = 0%) SZ: +57 ± 6%
  In Vivo Intact Rat % change vs Intact CONT (Intact CONT = +100%; CX CONT = 0%) VP: +47 ± 5%
  inhibition of intact rat prostate: 53±5%
  inhibition of intact rat seminal vesicles: 43±6%
  stimulation of the bulbocavernosus muscles in intact rat: 54±13%

## C[C@]12CCC3c4ccc(C#N)c(F)c4CCC3C1CC[C@@]2(O)Cc1ccncc1F (stereo partly shown) [EM-8455]
[1]
  Shionogi cells Antiandrogenic activity Ki OH-Flu/Ki compound: 3.1
  Ki: 1.9 nM
Human Androgen Receptor
  Human Androgen Receptor Binding RBA (%) R1881 = 100%: 9.1%
Immature Rat CX
  In Vivo Agonist % Change vs CX (DHT = +100%) SV: +1 ± 2%
  In Vivo Agonist % Change vs CX (DHT = +100%) VP: 0%
Immature Rat CX + DHT; [2]
  change in vivo at 0.1 mg: -85 ± 4%
Immature Rat CX + DHT; [3]
  change in vivo at 0.1 mg: -49 ± 3%

## Cc1cnccc1C[C@]1(O)CCC2C3CCc4c(ccc(C#N)c4F)C3CC[C@@]21C (stereo partly shown) [EM-8504]
[1]
  Shionogi cells Antiandrogenic activity Ki OH-Flu/Ki compound: 7.5
  Ki: 2.5 nM
Human Androgen Receptor
  Human Androgen Receptor Binding RBA (%) R1881 = 100%: 6.1%
Immature Rat CX + DHT; [2]
  change in vivo at 0.1 mg: -75 ± 2%
Immature Rat CX + DHT; [3]
  change in vivo at 0.1 mg: -51 ± 13%

## CC[C@H]1C[C@@]2(C)C(CC[C@@]2(O)Cc2ccncc2)C2CCc3c(ccc(C#N)c3F)C21 (stereo partly shown) [EM-8986]
[1]
  % of stim of basal at 10^−7M (% over basal): +21%
  % of stim of basal at 10^−7 M (DHT = 100%): +9%
  % of inh of DHT at 10^−7 M (Basal = 100%): +44%
Human Androgen Receptor
  Human Androgen Receptor Binding RBA (%) R1881 = 100%: 508%
Immature Rat CX
  In Vivo Agonist Rat CX % change vs CX (DHT CONT = +100%) Bulbo: +149 ± 13%
  In Vivo Agonist Rat CX % change vs CX (DHT CONT = +100%) SV: +24 ± 3%
  In Vivo Agonist Rat CX % change vs CX (DHT CONT = +100%) VP: +35 ± 3%
Immature Rat CX + DHT; rat, in vivo
  In Vivo Anti-A Rat CX + DHT % change vs DHT (CX CONT = −100%) Bulbo: +74 ± 13%
  In Vivo Anti-A Rat CX + DHT % change vs DHT (CX CONT = −100%) SV: −25 ± 4%
  In Vivo Anti-A Rat CX + DHT % change vs DHT (CX CONT = −100%) VP: −24 ± 3%
Intact Rat
  In Vivo Intact Rat % change vs Intact CONT (Intact CONT = +100%; CX CONT = 0%) Bulbo: +241 ± 27%
  In Vivo Intact Rat % change vs Intact CONT (Intact CONT = +100%; CX CONT = 0%) SZ: +98 ± 7%
  In Vivo Intact Rat % change vs Intact CONT (Intact CONT = +100%; CX CONT = 0%) VP: +76 ± 11%

## C[C@H]1C[C@@]2(C)C(CC[C@@]2(O)Cc2ccncc2F)C2CCc3c(ccc(C#N)c3F)C21 (stereo partly shown) [EM-6594]
[1]
  % of stim of basal at 10^−7M (% over basal): +224%
  % of stim of basal at 10^−7 M (DHT = 100%): +63%
  % of inh of DHT at 10^−7 M (Basal = 100%): +37%
Human Androgen Receptor
  Human Androgen Receptor Binding RBA (%) R1881 = 100%: 292%
Immature Rat CX
  In Vivo Agonist Rat CX % change vs CX (DHT CONT = +100%) Bulbo: +97 ± 19%
  In Vivo Agonist Rat CX % change vs CX (DHT CONT = +100%) SV: +13 ± 2%
  In Vivo Agonist Rat CX % change vs CX (DHT CONT = +100%) VP: +28 ± 7%
Immature Rat CX + DHT; rat, in vivo
  In Vivo Anti-A Rat CX + DHT % change vs DHT (CX CONT = −100%) SV: [−69 ± 4] %
  In Vivo Anti-A Rat CX + DHT % change vs DHT (CX CONT = −100%) VP: [−56 ± 4] %

## C[C@]12CCC3c4ccc(C#N)c(F)c4CCC3C1CC[C@@]2(O)Cc1cc[n+]([O-])cc1Cl (stereo partly shown) [EM-8633]
[1]
  Ki: 0.8 nM
Human Androgen Receptor
  Human Androgen Receptor Binding RBA (%) R1881 = 100%: 2.3%
Immature Rat CX
  In Vivo Agonist % Change vs CX (DHT = +100%) SV: 1%
  In Vivo Agonist % Change vs CX (DHT = +100%) VP: 0%
Immature Rat CX + DHT; [2]
  change in vivo at 0.1 mg: -83%
Immature Rat CX + DHT; [3]
  change in vivo at 0.1 mg: -42 ± 5%

## C[C@]12CCC3c4ccc(C#N)c(F)c4CCC3C1CC[C@@]2(O)Cc1ccncc1Cl (stereo partly shown) [EM-8632]
[1]
  Shionogi cells Antiandrogenic activity Ki OH-Flu/Ki compound: 2.1
  Ki: 4.1 nM
Human Androgen Receptor
  Human Androgen Receptor Binding RBA (%) R1881 = 100%: 47%
Immature Rat CX + DHT; rat, in vivo
  In Vivo Antagonist % Change vs DHT (CX = −100%) SV: −74 ± 3%
  In Vivo Antagonist % Change vs DHT (CX = −100%) VP: −43 ± 6%
